Measurements published in patent US10544148B2, “Pesticidally active tetracyclic heterocyclic derivatives with sulphur containing substituents” (Syngenta Participations AG, priority 2014, dated 2020).

Experiments:
Type in all cases: in vivo
[1] = tested on: Thrips tabaci (Onion Thrips); assay: Example B10: Thrips tabaci, sprayed sunflower leaf discs, mixed ages; settings: foliar, 144 h, application rate of 200 ppm, thrips population of mixed ages, 6 days after infestation
Protocol: Example B10: Thrips tabaci (Onion Thrips)
Sunflower leaf discs were placed on agar in 24-well microtiter plates and sprayed with aqueous test solutions prepared from 10′000 ppm DMSO stock solutions. After drying the leaf discs were infested with a thrips population of mixed ages. The samples were assessed for mortality 6 days after infestation.

[2] = tested on: Spodoptera littoralis (Egyptian Cotton Leaf Worm); assay: Example B8: Spodoptera littoralis, systemic test, compound in agar taken up by lettuce roots; settings: 144 h, test rate of 12.5 ppm, systemic via lettuce roots, 6 days after infestation, read-out: effect in at least one of the three categories (mortality, anti-feedancy, or growth inhibition)
Text: Example B8: Spodoptera littoralis (Egyptian Cotton Leaf Worm)
Test compounds were applied by pipette from 10′000 ppm DMSO stock solutions into 24-well plates and mixed with agar. Lettuce seeds were placed on the agar and the multi well plate was closed by another plate which contains also agar. After 7 days the roots have absorbed the compound and the lettuce has grown into the lid plate. The lettuce leafs were now cut off into the lid plate. Spodoptera eggs were pipetted through a plastic stencil on a humid gel blotting paper and the plate closed with it. The samples were assessed for mortality, anti-feedant effect and growth inhibition in comparison to untreated samples 6 days after infestation.

[3] = tested on: Bemisia tabaci (Cotton White fly); assay: Example B1: Bemisia tabaci, sprayed cotton leaf discs, adult mortality; settings: foliar, 144 h, application rate of 200 ppm, adult white flies, 6 days after incubation
Protocol: Example B1: Bemisia tabaci (Cotton White fly)
Cotton leaf discs were placed on agar in 24-well microtiter plates and sprayed with aqueous test solutions prepared from 10′000 ppm DMSO stock solutions. After drying the leaf discs were infested with adult white flies. The samples were checked for mortality 6 days after incubation.

[4] = tested on: Diabrotica balteata (Corn Root Worm); assay: Example B2: Diabrotica balteata, sprayed maize sprouts, L2 larvae; settings: 96 h, application rate of 200 ppm, 4 days after infestation
Protocol: Example B2: Diabrotica balteata (Corn Root Worm)
Maize sprouts, placed on an agar layer in 24-well microtiter plates were treated with aqueous test solutions prepared from 10′000 ppm DMSO stock solutions by spraying. After drying, the plates were infested with L2 larvae (6 to 10 per well). The samples were assessed for mortality and growth inhibition in comparison to untreated samples 4 days after infestation.

[5] = tested on: Spodoptera littoralis (Egyptian Cotton Leaf Worm); assay: Example B7: Spodoptera littoralis, sprayed cotton leaf discs, L1 larvae; settings: foliar, 72 h, application rate of 200 ppm, 3 days after infestation, read-out: control (at least one of mortality, anti-feedant effect, and growth inhibition)
Protocol: Example B7: Spodoptera littoralis (Egyptian Cotton Leaf Worm)
Cotton leaf discs were placed on agar in 24-well microtiter plates and sprayed with aqueous test solutions prepared from 10′000 ppm DMSO stock solutions. After drying the leaf discs were infested with five L1 larvae. The samples were assessed for mortality, anti-feedant effect, and growth inhibition in comparison to untreated samples 3 days after infestation. Control of Spodoptera littoralis by a test sample is when at least one of mortality, anti-feedant effect, and growth inhibition is higher than the untreated sample.

[6] = tested on: Plutella xylostella (Diamond Back Moth); assay: Example B6: Plutella xylostella, treated artificial diet, L2 larvae; settings: 120 h, application rate of 200 ppm, 5 days after infestation, read-out: effect in at least one of the two categories (mortality or growth inhibition)
Protocol: Example B6: Plutella xylostella (Diamond Back Moth)
24-well microtiter plates with artificial diet were treated with aqueous test solutions prepared from 10′000 ppm DMSO stock solutions by pipetting. After drying, the plates were infested with L2 larvae (10 to 15 per well). The samples were assessed for mortality and growth inhibition in comparison to untreated samples 5 days after infestation.

[7] = tested on: Euschistus heros (Neotropical Brown Stink Bug); assay: Example B3: Euschistus heros, sprayed soybean leaf, N-2 nymphs; settings: 120 h, application rate of 200 ppm, 5 days after infestation, read-out: effect in at least one of the two categories (mortality or growth inhibition)
Protocol: Example B3: Euschistus heros (Neotropical Brown Stink Bug)
Soybean leaf on agar in 24-well microtiter plates were sprayed with aqueous test solutions prepared from 10′000 ppm DMSO stock solutions. After drying the leaf were infested with N-2 nymphs. The samples were assessed for growth inhibition in comparison to untreated samples 5 days after infestation.

[8] = tested on: Myzus persicae (Green Peach Aphid); assay: Example B5: Myzus persicae, sprayed sunflower leaf discs, mixed ages; settings: foliar, 144 h, application rate of 200 ppm, aphid population of mixed ages, 6 days after infestation
Protocol: Example B5: Myzus persicae (Green Peach Aphid)
Sunflower leaf discs were placed on agar in a 24-well microtiter plate and sprayed with aqueous test solutions prepared from 10′000 ppm DMSO stock solutions. After drying, the leaf discs were infested with an aphid population of mixed ages. The samples were assessed for mortality 6 days after infestation.

[9] = tested on: Frankliniella occidentalis (Western Flower Thrips); assay: Example B4: Frankliniella occidentalis, sprayed sunflower leaf discs, mixed ages; settings: foliar, 168 h, application rate of 200 ppm, population of mixed ages, 7 days after infestation
Protocol: Example B4: Frankliniella occidentalis (Western Flower Thrips)
Sunflower leaf discs were placed on agar in 24-well microtiter plates and sprayed with aqueous test solutions prepared from […] stock solutions. After drying the leaf discs were infested with a Frankliniella population of mixed ages. The samples were assessed for mortality 7 days after infestation.

[10] = tested on: Tetranychus urticae (Two-Spotted Spider Mite); assay: Example B9: Tetranychus urticae, sprayed bean leaf discs, mixed population; settings: foliar, 192 h
Protocol: Example B9: Tetranychus urticae (Two-Spotted Spider Mite)
Bean leaf discs on agar in 24-well microtiter plates were sprayed with aqueous test solutions prepared from 10′000 ppm DMSO stock solutions. After drying the leaf discs were infested with a mite population of mixed ages. The samples were assessed for mortality on mixed population (mobile stages) 8 days after infestation.

CCS(=O)(=O)c1cc(-c2cc(F)cc(F)c2)cnc1-c1nc2cc(C(F)(F)F)nnc2n1C [P1, 6-[5-(3,5-difluorophenyl)-3-ethylsulfonyl-2-pyridyl]-7-methyl-3-(trifluoromethyl)imidazo[4,5-c]pyridazine]
≥ 80%: mortality at 200 ppm [1] | percent control (mortality, anti-feedancy or growth inhibition) at 12.5 ppm [2] | mortality at 200 ppm [3] | mortality at 200 ppm [4] | mortality at 200 ppm [5] | percent effect (mortality or growth inhibition) at 200 ppm [6] | percent effect (mortality or growth inhibition) at 200 ppm [7] | mortality at 200 ppm [8] | mortality at 200 ppm [9]

CCSc1cc(-c2ccc(C(F)(F)F)cc2)ccc1-c1nc2cc(C(F)(F)F)nnc2n1C [P4, 6-[2-ethylsulfanyl-4-[4-(trifluoromethyl)phenyl]phenyl]-7-methyl-3-(trifluoromethyl)imidazo[4,5-c]pyridazine]
≥ 80%: mortality at 200 ppm [4] | mortality at 200 ppm [5] | percent effect (mortality or growth inhibition) at 200 ppm [6]

CCS(=O)(=O)c1cc(-c2ccc(C(F)(F)F)cc2)cnc1-c1nc2cc(C(F)(F)F)nnc2n1C [P3]
≥ 80%: mortality at 200 ppm [4] | mortality at 200 ppm [5] | percent effect (mortality or growth inhibition) at 200 ppm [6] | percent effect (mortality or growth inhibition) at 200 ppm [7] | mortality at 200 ppm [8] | mortality at 200 ppm [9]

CCS(=O)(=O)c1cc(-n2ccc(C(F)(F)F)n2)cnc1-c1nc2cc(C(F)(F)F)nnc2n1C [P2, 6-[3-ethylsulfonyl-5-[3-(trifluoromethyl)pyrazol-1-yl]-2-pyridyl]-7-methyl-3-(trifluoromethyl)imidazo[4,5-c]pyridazine]
≥ 80%: mortality at 200 ppm [1] | mortality at 200 ppm [3] | mortality at 200 ppm [4] | mortality at 200 ppm [5] | percent effect (mortality or growth inhibition) at 200 ppm [6] | percent effect (mortality or growth inhibition) at 200 ppm [7] | mortality at 200 ppm [8]

CCS(=O)(=O)c1cc(-c2ccc(C(F)(F)F)cc2)ccc1-c1nc2cc(C(F)(F)F)nnc2n1C [P5]
≥ 80%: mortality at 200 ppm [10] | mortality at 200 ppm [4] | mortality at 200 ppm [5] | percent effect (mortality or growth inhibition) at 200 ppm [6]
